The test system of one test is SW480. Details: method as in earlier work. The conditions noted are these: 96 h incubation; ref 48 (ESI Ref. 1); cited from earlier work.
The test system of the next test is CH1/PA-1. Details: method as in Ref. 1 (ESI). Particulars: 96 h incubation; ref Ref. 1 (ESI); cited from earlier work.
A further test has as its system TP53. Briefly: Immunofluorescence staining of TP53. The format is cell-based, human. Particulars: SW480, 24 h; 1a 1 μM; etoposide 100 nM. How it is done:
Cell Signaling Technology (Danvers, MA, USA), respectively. Horseradish-peroxidase-linked secondary antibodies, anti-mouse IgG (Fc specific) antibody (#7076S) and anti-rabbit IgG antibody (#7074S) were purchased from Cell Signaling Technology (Danvers, MA, USA). Anti-ß-actin (AC-15) (A5441, 1:2000) was obtained from Sigma-Aldrich (St. Louis, MO, USA).
SW480 and CT26 cells were grown at a density of 6.7x10^4 cells/mL on 8-well glass coverslips (80841, ibidi GmbH, Gräfelfing, Germany) in 300 µL complete media. The next day, cells were treated with respective compounds for 24 h. Cells were fixed with 4%(v/v) paraformaldehyde for 15 min at RT, followed by washing, blocking and permeabilization with 5%(w/v) BSA and […]
(1 : 500) were diluted in 1% BSA-0.3% Triton-X-100 in PBS and incubated overnight at 4 °C.
One well was incubated without primary antibody as background control. Cells were washed and stained with secondary goat anti-mouse AlexaFlour-488 (1 : 500 dilution, A-11029, Thermo Fisher Scientific) or goat anti-rabbit AlexaFlour-488 (1 : 500 dilution, A-11034, Thermo Fisher Scientific) antibodies for 1 h at RT. Following, cells were stained with 0.2% Wheat Germ Agglutinin (WGA)-Rhodamine (RL-1022, Vector Laboratories, Inc.) and 0.1% DAPI (62248, Thermo Fisher Scientific) for staining of plasma membrane and nuclei, respectively, according to manufacturer’s recommendations. […]

In another test the test system is SW480 cancer cells. Briefly: Cell cycle analysis by flow cytometry (propidium iodide). Type of test: cell-based, human. Particulars: 24 h; 1a 12.5 to 50 nM; gemcitabine 10 nM. On the technique in general: Flow cytometry measures light scatter and fluorescence of single cells or particles in a stream.

These results are taken from publication PMC12320299 (Chemical Science, 2025).

One may read the IC50 as the midpoint of a concentration-inhibition curve. Consider `CCC1=C(O)C(=O)c2ccccc2C1=O` [a], for which the IC50 in the test with SW480 is 100 ± 10 µM; in the test with CH1/PA-1, 173 ± 10 µM. Take `O=C1C(O)=C(CN2CCOCC2)C(=O)c2ccccc21` [b, 3-morpholine naphthoquinone]: the 50% inhibitory concentration (IC50) with SW480 was 160 ± 30 µM; in the test on CH1/PA-1 it was more than 200 µM. As for `N.N.[Cl][Pt][Cl]` [cisplatin, reference compound], the figures for the IC50 in the test with SW480 and in the test with CH1/PA-1 were 2.3 ± 0.2 µM and 0.073 ± 0.001 µM, respectively. On to `COc1cc([C@@H]2c3cc4c(cc3[C@@H](O[C@@H]3O[C@@H]5CO[C@@H](C)O[C@H]5[C@H](O)[C@H]3O)[C@H]3COC(=O)[C@H]23)OCO4)cc(OC)c1O` [etoposide, reference compound], for which the TP53 immunofluorescence signal entry with TP53 is “enhanced nuclear accumulation of TP53”.

As to `Nc1ccn([C@@H]2O[C@H](CO)[C@@H](O)C2(F)F)c(=O)n1` [gemcitabine, reference compound], in the test with SW480 cancer cells, the cell cycle distribution result is reported as “G0/G1 arrest”.
